Laboratory results published in patent publication US20080161378A1, “Novel Therapeutic Agent For Amyotrophic Lateral Sclerosis (Als) or Diseases Caused by Als” (priority 2004, published 2008).

Legend:
[1] = test system: ALS; settings: Non-Patent Documents 1-5; cited from earlier work
[2] = test system: patients of ALS; experiment: Efficacy evaluation 6 months after administration based on ALSFRS-R (cumulative differences); assay type: in vivo, human; settings: for Suppression rate (rate of "suppressed") in accordance with ALSFRS-R / Assessment based on cumulative differences in accordance with ALSFRS-R: Suppressed (number of cases): i.v. once daily; for Suppression rate (rate of "suppressed") in accordance with ALSFRS-R: 6 administration periods; for Assessment based on cumulative differences in accordance with ALSFRS-R: Suppressed (number of cases): 6 administration periods with drug holidays, suppressed = ratio between cumulative differences 50% or less; for Assessment based on cumulative differences in accordance with ALSFRS-R: No change (number of cases): no change = ratio 100% or more; for Assessment based on cumulative differences in accordance with ALSFRS-R: Slightly suppressed (number of cases): slightly suppressed = ratio more than 50% and less than 100%
Protocol: 1 ampule of “Radicut injection 30 mg” (containing 30 mg of edaravone, produced and marketed by Mitsubishi Pharma Corporation) was intravenously administered once daily to 5 patients of ALS. Single daily administration of the medicament took 30 minutes, and the administration was carried out for 14 consecutive days (the 1st administration period). […] Thereafter, intravenous administration of the medicament was carried out for 10 days (with no administration on Saturdays, Sundays, and national holidays) in the manner described above (the 2nd administration period). Then, treatments similar to those carried out in the 2nd administration period were repeated 4 times (the 3rd to 6th administration periods).
2 ampules of the aforementioned “Radicut injection 30 mg” were intravenously administered once daily to 14 patients of ALS. Single daily administration of the medicament took 60 minutes, and the administration was carried out for 14 consecutive days (the 1st administration period). […] Thereafter, the intravenous administration of the medicament was carried out for 10 days (with no administration on Saturdays, Sundays, and national holidays) in the manner described above (the 2nd administration period). Then, treatments similar to those carried out in the 2nd administration period were repeated 4 times (the 3rd to 6th administration periods).
In accordance with ALSFRS-R, the score at a time point “before the 1st administration period” (*) was determined to be a base point based on comparison of changes “before administration” and changes “during administration.” Then, patients were evaluated in the following manner.
• Difference at each time point before administration=(* before the 1st administration period)−(time point 1, 2 3, 4, 5 or 6 before administration) • Difference at each time point during administration=(time point i, ii, iii, iv, v, or vi before each administration period)−(* before the 1st administration period)
The sum of differences at time points before administration (defined as A)
A=(*−1)+(*−2)+(*−3)+(*−4)+(*−5)+(*−6)
The sum of differences at time points during administration (defined as B)
B=(i−*)+(ii−*)+(iii−*)+(iv−*)+(v−*)+(vi−*)
Averages of the sums of differences obtained in 2) were calculated so as to obtain cumulative differences. (The sums were divided by 6, based on 6 time points 1 to 6 before administration and 6 time points i to vi during administration).
Cumulative difference before administration=A/6
Cumulative difference during administration=B/6
Based on the averages obtained in 3), the ratio of cumulative difference before administration (A/6) to cumulative difference during administration (B/6) was expressed by the following formula:
(Formula)cumulative difference during administration/cumulative difference before administration×100.
Ratio between cumulative differences(%)=(B/6)/(A/6)×100.
Based on the “ratio between cumulative differences” obtained in 4), efficacy evaluation was made in accordance with the following criteria.

[3] = test system: patients of ALS; experiment: Safety evaluation 6 months after administration, clinical laboratory test; assay type: in vivo, human; settings: for BUN / CK / Creatinine / GOT / GPT / γ-GTP: average of patients of Example 2
Protocol: The patients of Example 2 were each subjected to a clinical laboratory test.
The following components were determined before and after drug administration using a large automated multichannel analyzer (automatic analyzer 7600-020s; Hitachi).

[4] = test system: patients of ALS; experiment: Efficacy evaluation 6 months after administration based on % FVC (percent predicted forced vital capacity); assay type: in vivo, human; settings: for average rate of decrease of % FVC: before 1st administration period vs end of 6th administration period
Protocol: The term “% FVC” stands for percent predicted forced vital capacity; it is generally used as an index in a method for objectively evaluating respiratory function in ALS patients (ALS treatment guidelines 2002). In addition, in the case of ALS patients (placebo group), the rate of decrease of % FVC for during 6 months is 13.8% (The BDNF Study Group (Phase III), Neurology, 52, 1427 (1999)).
1 ampule of the aforementioned “Radicut injection 30 mg” was intravenously administered once daily to 4 patients of ALS. Single daily administration of the medicament took 30 minutes, and it was carried out for 14 consecutive days (the 1st administration period). […] Thereafter, intravenous administration of the medicament was carried out for 10 days (with no administration on Saturdays, Sundays, and national holidays) in the manner described above (the 2nd administration period). Then, treatments similar to those carried out in the 2nd administration period were repeated 4 times (the 3rd to the 6th administration periods).
The % FVC for each patient was determined using a chestac-11 (Chest). The average rate of decrease of % FVC was 9.3% when comparing % FVC before the 1st drug administration period and that at the end of the 6th drug administration period.
2 ampules of “Radicut injection 30 mg” (each of which contained 30 mg of edaravone) were intravenously administered once daily to 12 patients of ALS. Single daily administration of the medicament took 60 minutes and it was carried out for 14 consecutive days (the 1st administration period). […] Thereafter, intravenous administration of the medicament was carried out for 10 days (with no administration on Saturdays, Sundays, and national holidays) in the manner described above (the 2nd administration period). […]
The % FVC for each patient was determined using a chestac-11 (Chest), as with the case of the 30 mg group. […] In addition, partial pressure of arterial carbon dioxide (PaCO2) was determined. The PaCO2 of each patient was determined using a blood gas analyzer (Bayer 850; Bayer Medical).

[5] = test system: patients of ALS; experiment: Partial pressure of arterial carbon dioxide (PaCO2), blood gas analyzer; assay type: in vivo, human
Protocol: 2 ampules of “Radicut injection 30 mg” (each of which contained 30 mg of edaravone) were intravenously administered once daily to 12 patients of ALS. Single daily administration of the medicament took 60 minutes and it was carried out for 14 consecutive days (the 1st administration period). […] Thereafter, intravenous administration of the medicament was carried out for 10 days (with no administration on Saturdays, Sundays, and national holidays) in the manner described above (the 2nd administration period). Then, treatments similar to those carried out in the 2nd administration period were repeated 4 times (the 3rd to the 6th administration periods).
The % FVC for each patient was determined using a chestac-11 (Chest), as with the case of the 30 mg group. The average rate of decrease of % FVC was 4.5% when comparing % FVC before the 1st drug administration period and that at the end of the 6th drug administration period. In addition, partial pressure of arterial carbon dioxide (PaCO2) was determined. The PaCO2 of each patient was determined using a blood gas analyzer (Bayer 850; Bayer Medical).

[6] = before administration (baseline)
[7] = overall conclusion of Example 2

Q: Which “prevention of decreased respiratory function in ALS” value [1] does the source give for CC(=O)N[C@@H](CS)C(=O)O [N-acetylcysteine] here?
A: cannot prevent decreased respiratory function

Q: Which results are given for CC1=NN(c2ccccc2)C(=O)C1 [Radicut injection 30 mg, 3-methyl-1-phenyl-2-pyrazolin-5-one]?
A: Suppression rate (rate of "suppressed") in accordance with ALSFRS-R ([2]; 30 mg group (5 ALS patients)): 20%; Assessment based on cumulative differences in accordance with ALSFRS-R: Suppressed (number of cases) ([2]; 30 mg group (5 ALS patients)): 1; Assessment based on cumulative differences in accordance with ALSFRS-R: No change (number of cases) ([2]; 30 mg group (5 ALS patients)): 1; Assessment based on cumulative differences in accordance with ALSFRS-R: Slightly suppressed (number of cases) ([2]; 30 mg group (5 ALS patients)): 3; Suppression rate (rate of "suppressed") in accordance with ALSFRS-R ([2]; 60 mg group (14 ALS patients)): 50%; Assessment based on cumulative differences in accordance with ALSFRS-R: Suppressed (number of cases) ([2]; 60 mg group (14 ALS patients)): 7; Assessment based on cumulative differences in accordance with ALSFRS-R: No change (number of cases) ([2]; 60 mg group (14 ALS patients)): 6; Assessment based on cumulative differences in accordance with ALSFRS-R: Slightly suppressed (number of cases) ([2]; 60 mg group (14 ALS patients)): 1; BUN ([3]; after administration): 14.3 mg/dL; CK ([3]; after administration): 135.6 IU/L; Creatinine ([3]; after administration): 0.6 mg/dL; GOT ([3]; after administration): 19.1 IU/L; GPT ([3]; after administration): 19.6 IU/L; γ-GTP ([3]; after administration): 25.3 IU/L; BUN [3, 6]: 14.1 mg/dL; CK [3, 6]: 165.3 IU/L; Creatinine [3, 6]: 0.6 mg/dL; GOT [3, 6]: 21.3 IU/L; GPT [3, 6]: 22.2 IU/L; γ-GTP [3, 6]: 31.6 IU/L; clinical laboratory values after administration (safety) ([3]; patients of Example 2, 6 months after administration): did not increase to abnormal levels; average rate of decrease of % FVC ([4]; 30 mg group (4 ALS patients)): 9.3%; average rate of decrease of % FVC ([4]; 60 mg group (12 ALS patients)): 4.5%; decrease of % FVC in ALS patients [4, 7]: significantly suppressed; PaCO2 values before the 1st administration period and after the end of the 6th administration period ([5]; 60 mg group (12 ALS patients)): almost the same; increase of PaCO2 in ALS patients [5, 7]: significantly suppressed

Q: Which “prevention of decreased respiratory function in ALS” value [1] does the source give for NCC1(CC(=O)O)CCCCC1 [gabapentin] here?
A: cannot prevent decreased respiratory function

Q: For “RhIGF-1: medicament examined as potential medicament for treating ALS”, which “prevention of decreased respiratory function in ALS” value [1] is on record?
A: cannot prevent decreased respiratory function

B1: BDNF: medicament examined as potential medicament for treating ALS (protein, UniProt P23560 19-247, looked up)
Neurotrophic factor BDNF …: APMKEANIRGQGGLAYPGVRTHGTLESVNGPKAGSRGLTSLADTFEHVIEELLDEDQKVRPNEENNKDADLYTSRVMLSSQVPLEPPLLFLLEEYKNYLDAANMSMRVRRHSDPARRGELSVCDSISEWVTAADKKTAVDMSGGTVTVLEKVPVSKGQLKQYFYETKCNPMGYTKEGCRGIDKRHWNSQCRTTQSYVRALTMDSKKRIGWRFIRIDTSCVCTLTIKRGR
Q: Which “prevention of decreased respiratory function in ALS” value [1] does the source give for B1 here?
A: cannot prevent decreased respiratory function
